Measurements: the NIST ThermoML archive (doi:10.1016/j.jct.2016.03.029)
± gives the expanded uncertainty stated by the source.

What was measured:
[1] = 100 kPa, Liquid; for speed of sound: Frequency=3 MHz, Sing-around technique in a fixed-path interferometer; for mass density: Vibrating tube method
[2] = refractive index (Na D-line) (dimensionless); settings: 100 kPa, Liquid, Standard Abbe refractometry
[3] = xn = mol fraction of the nth substance listed; settings: 100 kPa, Liquid, x2 = 0; for speed of sound: Frequency=3 MHz, Sing-around technique in a fixed-path interferometer; for mass density: Vibrating tube method
[4] = refractive index (Na D-line) (dimensionless); xn = mol fraction of the nth substance listed; settings: 100 kPa, Liquid, Standard Abbe refractometry, x2 = 0

SMILES | speed of sound ([1]; 298.15 K) | mass density ([1]; 298.15 K) | speed of sound ([1]; 303.15 K) | mass density ([1]; 303.15 K) | speed of sound ([1]; 308.15 K) | mass density ([1]; 308.15 K) | speed of sound ([1]; 313.15 K) | mass density ([1]; 313.15 K) | speed of sound ([1]; 318.15 K) | mass density ([1]; 318.15 K) | speed of sound ([1]; 323.15 K) | mass density ([1]; 323.15 K) | refractive index ([2]; 298.15 K) | refractive index ([2]; 303.15 K) | refractive index ([2]; 308.15 K) | refractive index ([2]; 313.15 K) | refractive index ([2]; 318.15 K) | refractive index ([2]; 323.15 K) | other results
CCCC[n+]1ccn(C)c1.O=S(=O)([N-]S(=O)(=O)C(F)(F)F)C(F)(F)F | 1227.9 ± 1.3 m/s | 1433.72 ± 1 kg/m3 | 1216.8 ± 1.3 m/s | 1428.92 ± 1 kg/m3 | 1205.8 ± 1.2 m/s | 1424.13 ± 1 kg/m3 | 1195 ± 1.2 m/s | 1419.36 ± 1 kg/m3 | 1184.2 ± 1.2 m/s | 1414.61 ± 1 kg/m3 | 1173.6 ± 1.2 m/s | 1409.88 ± 1 kg/m3 | 1.42671 ± 0.00085 | 1.42522 ± 0.00085 | 1.42373 ± 0.00085 | 1.42225 ± 0.00085 | 1.42076 ± 0.00085 | 1.41923 ± 0.00085 | 
CN1CCCC1=O [N-methylpyrrolidone] | 1543.8 ± 1.4 m/s | 1027.1 ± 1 kg/m3 | 1524.3 ± 1.4 m/s | 1022.64 ± 1 kg/m3 | 1505 ± 1.4 m/s | 1018.18 ± 1 kg/m3 | 1485.7 ± 1.4 m/s | 1013.72 ± 1 kg/m3 | 1466.7 ± 1.4 m/s | 1009.25 ± 1 kg/m3 | 1447.8 ± 1.4 m/s | 1004.79 ± 1 kg/m3 | 1.46838 ± 0.00086 | 1.46626 ± 0.00086 | 1.46412 ± 0.00086 | 1.46199 ± 0.00086 | 1.45983 ± 0.00086 | 1.45771 ± 0.00086 | 
CN1CCCC1=O [N-methylpyrrolidone] + CCCC[n+]1ccn(C)c1.O=S(=O)([N-]S(=O)(=O)C(F)(F)F)C(F)(F)F |  |  |  |  |  |  |  |  |  |  |  |  |  |  |  |  |  |  | speed of sound ([3]; 298.15 K): 1543.8 ± 1.4 m/s; mass density ([3]; 298.15 K): 1027.1 ± 1 kg/m3; speed of sound ([3]; 303.15 K): 1524.3 ± 1.4 m/s; mass density ([3]; 303.15 K): 1022.64 ± 1 kg/m3; speed of sound ([3]; 308.15 K): 1505 ± 1.4 m/s; mass density ([3]; 308.15 K): 1018.18 ± 1 kg/m3; speed of sound ([3]; 313.15 K): 1485.7 ± 1.4 m/s; mass density ([3]; 313.15 K): 1013.72 ± 1 kg/m3; speed of sound ([3]; 318.15 K): 1466.7 ± 1.4 m/s; mass density ([3]; 318.15 K): 1009.25 ± 1 kg/m3; speed of sound ([3]; 323.15 K): 1447.8 ± 1.4 m/s; mass density ([3]; 323.15 K): 1004.79 ± 1 kg/m3; refractive index ([4]; 298.15 K): 1.46838 ± 0.00086; refractive index ([4]; 303.15 K): 1.46626 ± 0.00086; refractive index ([4]; 308.15 K): 1.46412 ± 0.00086; refractive index ([4]; 313.15 K): 1.46199 ± 0.00086; refractive index ([4]; 318.15 K): 1.45983 ± 0.00086; refractive index ([4]; 323.15 K): 1.45771 ± 0.00086
